Experimental data as given in US10081629B2, “Amide derivatives and pharmaceutically acceptable salts thereof, preparation method thereof and medicinal application thereof” (Shanghai Hengrui Pharmaceutical Co., Ltd., priority 2014, dated 2018).
pIC50: −log10 of the molar value.

Key:
human mPGES1 = human mPGES1 (Homo sapiens (Human), UniProt O14684); experiment: Inhibition activity for human mPGES1 (enzyme assay, PGE2 HTRF); type: biochemical; conditions: membrane protein from HEK-293 F transfected with human mPGES1
Protocol: The method described here is used for determining the inhibition activity of the present compounds for human mPGES1.
• 1. PGE2 Assay kit (Cisbio, #62P2APEB) • 2. Prostaglandin H2 (Sigma, #P7867-1MG) • 3. FlexStation3 microplate reader. II. Experimental Procedure • 1. Obtaining the membrane proteins of mPGES1 enzyme
The cell density of HEK-293 F was grown to 6×10^5 per milliliter and was transferred with the plasmid containing human mPGES1 gene by transfection reagent PEI the next day. The cells were continuously cultured for 72 hours at 37° C. with shaking. After centrifuging at 1100 g for 5 minutes, the cells were harvested. After ultrasonication in an ice bath and centrifugation at 5000 g for 10 minutes, the supernatant was obtained. The supernatant was centrifuged at 100000 g for 1 hour to obtain a precipitate. The precipitate was resuspended with storage buffer containing 10% glycerinum, subpackaged and frozen rapidly under liquid nitrogen, and stored at −80° C. • 2. mPGES1 enzyme assay
mPGES1 was diluted with assay buffer and added into plate at 49 μL/well supplemented with 1 μL of compound (the final concentration of each compound at seven gradient concentrations was 10000 nM, 1000 nM, 100 nM, 10 nM, 1 nM, 0.1 nM and 0.01 nM). […] Then, each well was added with 53.8 μL of 6 mg/mL SnCl2 to quench the reaction. The sample was diluted with dilute buffer at 1:400. 10 μl of diluted sample, 5 μL PGE2-d2 and 5 μL anti-PGE2 Cryptate were added to a black 384-well plate, and incubated at 4° C. overnight. HTRF was determined using Flexstation, and the IC50 of the compounds was obtained by data processing software.
The inhibition activity of the present compounds on mPGES1 was tested by the assay described above.

[1] = test system: secretion of PGE2 by A549 cells stimulated with IL-1β; experiment: Inhibition of the secretion of PGE2 by A549 cells stimulated with IL-1β; type: cell-based; conditions: IL-1β 0.2 ng/mL, 24 hours
Source text: The method described here was used for determining the inhibition activity of the present compounds on the secretion of PGE2 by A549 cells stimulated with IL-1β.
• 1. PGE2 Assay kit (Cisbio, #62P2APEB) • 2. IL-1β (Peprotech, # AF-200-01B) • 3. Cell line: A549 (ATCC: CCL-185) • 4. FlexStation3 microplate reader. II. Experimental Procedure
On the first day, A549 cells were inoculated in a 96-well plate at 40000/well. On the second day, the culture medium in the 96-well plate was removed and then added with 90 μL of compound diluted with culture medium (the concentration of each compound at seven gradient concentrations was 11111 nM, […], 1.11 nM, 0.11 nM and 0.011 nM). The cells were incubated for 30 minutes at 37° C. in an incubator, and then added with IL-1β to a final concentration of 0.2 ng/mL. Then, the cells were incubated for another 24 hours at 37° C. On the third day, 10 μl of supernatant, 5 μL of PGE2-d2 and 5 μL of anti-PGE2 Cryptate were added into a black 384-well plate, and then incubated at 4° C. overnight. HTRF was determined using Flexstation, and the IC50 of the compounds was obtained by data processing software.
The inhibition activity of the present compounds on the secretion of PGE2 by A549 cells stimulated with IL-1β was determined by the assay described above.

human mPGES1, sequence (O14684 whole entry): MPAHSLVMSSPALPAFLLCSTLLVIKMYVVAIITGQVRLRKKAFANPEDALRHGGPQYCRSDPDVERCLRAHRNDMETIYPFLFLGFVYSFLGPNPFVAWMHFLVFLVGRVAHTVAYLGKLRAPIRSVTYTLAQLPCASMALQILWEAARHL

Row | Structure (SMILES) | pIC50 (human mPGES1) | pIC50 ([1]; Homo sapiens, A549) | pIC50 [1]
1 | CC(C)(C)C(=O)NCc1ccc(Cl)c(C(=O)Nc2ccc3c(c2)CN(c2ccc(C(F)(F)F)cc2)C3)c1 [Example 25, 2-Chloro-5-((2,2-dimethylpropanoylamino)methyl)-N-(2-(4-(trifluoromethyl)phenyl)isoindolin-5-yl)benzamide] | 7.93 | 7.32 | 
2 | CCn1c(-c2ccc(Cl)cc2)cc2cc(NC(=O)c3cc(CNC(=O)C4(C)CC4)cnc3C(F)F)ccc21 [Example 42, N-(2-(4-Chlorophenyl)-1-ethyl-1H-indol-5-yl)-2-(difluoromethyl)-5-(((1-methylcyclopropanecarbonyl)amino)methyl)nicotinamide] | 8.14 |  | 
3 | CC(C)(F)C(=O)NCc1cnc(C(F)F)c(C(=O)Nc2ccc3c(c2)C(=O)N(c2cccc(C(F)(F)F)c2)C3)c1 [Example 59, 2-(Difluoromethyl)-5-(((2-fluoro-2-methyl-propanoyl)amino)methyl)-N-(3-oxo-2-(3-(trifluoromethyl)phenyl)isoindolin-5-yl)nicotinamide] | 8.93 | 7.69 | 
4 | CC(C)(C)C(=O)NCc1ccc(Cl)c(C(=O)Nc2ccc3c(c2)C(=O)N(c2ccc(Cl)cc2)C3)c1 [Example 57, 2-Chloro-N-(2-(4-chlorophenyl)-3-oxo-isoindolin-5-yl)-5-((2,2-dimethylpropanoylamino)methyl)benzamide] | 8.17 | 8.21 | 
5 | Cn1c(-c2ccc(F)cc2)cc2cc(NC(=O)c3cc(CNC(=O)C4(C(F)(F)F)CC4)ccc3Cl)ccc21 [Example 34, 2-Chloro-N-(2-(4-fluorophenyl)-1-methyl-1H-indol-5-yl)-5-(((1-(trifluoromethyl)cyclopropanecarbonyl)amino)methyl)benzamide] | 8.11 | 7.91 | 
6 | CC1(C(=O)NCc2ccc(Cl)c(C(=O)Nc3ccc4oc(-c5ccc(C(F)(F)F)cc5)nc4c3)c2)CC1 [Example 41, 2-Chloro-5-(((1-methylcyclopropanecarbonyl)amino)methyl)-N-(2-(4-(trifluoromethyl)phenyl)benzo[d]oxazol-5-yl)benzamide] | 7.59 |  | 
7 | CCn1c(-c2ccc(C(F)(F)F)cc2)cc2cc(NC(=O)c3cc(CNC(=O)C(C)C)cnc3C(F)F)ccc21 [Example 1, 2-(difluoromethyl)-N-(1-ethyl-2-(4-(trifluoromethyl)phenyl)-1H-indol-5-yl)-5-((2-methylpropanoylamino)methyl)nicotinamide] | 8.08 | 8.45 | 
8 | CC(C)C(=O)NCc1cnc(C(F)F)c(C(=O)Nc2ccc3c(c2)cc(-c2ccc(Cl)cc2)n3C)c1 [Example 13, N-(2-(4-chlorophenyl)-1-methyl-1H-indol-5-yl)-2-(difluoromethyl)-5-((2-methylpropanoylamino)methyl)nicotinamide] | 8.13 | 7.78 | 
9 | CC(C)C(=O)NCc1cnc(C(F)F)c(C(=O)Nc2ccc3oc(-c4ccc(C(F)(F)F)cc4)nc3c2)c1 [Example 38, 2-(Difluoromethyl)-5-((2-methylpropanoylamino)methyl)-N-(2-(4-(trifluoromethyl)phenyl)benzo[d]oxazol-5-yl)nicotinamide] | 8.27 | 7.37 | 
10 | CCn1c(-c2ccc(F)cc2)cc2cc(NC(=O)c3cc(CNC(=O)C(C)(C)C)ccc3Cl)cnc21 [Example 4, 2-Chloro-N-(1-ethyl-2-(4-fluorophenyl)-1H-pyrrolo[2,3-b]pyridin-5-yl)-5-((2,2-dimethylpropanoylamino)methyl)-benzamide] |  | 7.57 | 
11 | CCn1cc(-c2ccc(F)cc2)c2cc(NC(=O)c3cc(CNC(=O)C(C)(C)C)ccc3Br)ccc21 [Example 6, 2-Bromo-N-(1-ethyl-3-(4-fluorophenyl)-1H-indol-5-yl)-5-((2,2-dimethylpropanoylamino)methyl)-benzamide] |  | 7.17 | 
12 | CCn1c(-c2ccc(Cl)cc2)nc2cc(NC(=O)c3cc(CNC(=O)C(C)(C)C)ccc3Cl)ccc21 [Example 52, 2-Chloro-N-(2-(4-chlorophenyl)-1-ethyl-1H-benzo[d]imidazol-5-yl)-5-((2,2-dimethylpropanoylamino)methyl)benzamide] |  | 7.26 | 
13 | CC(C)C(=O)NCc1cnc(C(F)F)c(C(=O)Nc2ccc3oc(-c4ccc(Cl)cc4)nc3c2)c1 [Example 45, N-(2-(4-Chlorophenyl)benzo[d]oxazol-5-yl)-2-(difluoromethyl)-5-((2-methylpropanoylamino)methyl)nicotinamide] | 7.31 | 7.59 | 
14 | CCn1c(-c2ccc(F)cc2)cc2cc(NC(=O)c3cc(CNC(=O)C(C)C)cnc3C(F)F)ccc21 [Example 5, 2-(Difluoromethyl)-N-(1-ethyl-2-(4-fluorophenyl)-1H-indol-5-yl)-5-((2-methylpropanoylamino)methyl)nicotinamide] | 7.66 | 7.91 | 
15 | CC(C)C(=O)NCc1cnc(C(F)F)c(C(=O)Nc2ccc3c(c2)CN(c2ccc(C(F)(F)F)cc2)C3)c1 [Example 40, 2-(Difluoromethyl)-5-((2-methylpropanoylamino)methyl)-N-(2-(4-(trifluoromethyl)phenyl)isoindolin-5-yl)nicotinamide] | 7.65 | 7.77 | 
16 | Cn1c(-c2ccc(Cl)cc2)cc2cc(NC(=O)c3cc(CNC(=O)C4(C(F)(F)F)CC4)cnc3C(F)F)ccc21 [Example 21, N-(2-(4-Chlorophenyl)-1-methyl-1H-indol-5-yl)-2-(difluoromethyl)-5-(((1-(trifluoromethyl)cyclopropanecarbonyl)amino)methyl)nicotinamide] | 8.08 | 7.24 | 
17 | Cn1c(-c2ccc(Cl)cc2)cc2cc(NC(=O)c3cc(CNC(=O)C(C)(C)F)cnc3C(F)F)ccc21 [Example 18, N-(2-(4-Chlorophenyl)-1-methyl-1H-indol-5-yl)-2-(difluoromethyl)-5-(((2-fluoro-2-methyl-propanoyl)amino)methyl)nicotinamide] | 8.29 |  | 7.76
18 | CC(C)(F)C(=O)NCc1cnc(C(F)F)c(C(=O)Nc2ccc3oc(-c4cccc(C(F)(F)F)c4)nc3c2)c1 [Example 56, 2-(Difluoromethyl)-5-(((2-fluoro-2-methyl-propanoyl)amino)methyl)-N-(2-(3-(trifluoromethyl)phenyl)benzo[d]oxazol-5-yl)nicotinamide] | 8.11 | 7.56 | 
19 | CC(C)(F)C(=O)NCc1cnc(C(F)F)c(C(=O)Nc2ccc3c(c2)CN(c2ccc(C(F)(F)F)cc2)C3)c1 [Example 26, 2-(Difluoromethyl)-5-(((2-fluoro-2-methyl-propanoyl)amino)methyl)-N-(2-(4-(trifluoromethyl)phenyl)isoindolin-5-yl)nicotinamide] | 8.47 | 7.34 | 
20 | CC(C)C(=O)NCc1cnc(C(F)F)c(C(=O)Nc2ccc3nn(-c4ccc(C(F)(F)F)cc4)cc3c2)c1 [Example 24, 2-(Difluoromethyl)-5-((2-methylpropanoylamino)methyl)-N-(2-(4-(trifluoromethyl)phenyl)-2H-indazol-5-yl)nicotinamide] | 7.76 | 7.34 | 
21 | CC(C)(C)C(=O)NCc1ccc(Cl)c(C(=O)Nc2ccc3oc(-c4ccc(C(F)(F)F)cc4)nc3c2)c1 [Example 22, 2-Chloro-5-((2,2-dimethylpropanoylamino)methyl)-N-(2-(4-(trifluoromethyl)phenyl)benzo[d]oxazol-5-yl)benzamide] | 8.17 | 7.41 | 
22 | Cn1c(-c2ccc(Cl)cc2)nc2cc(NC(=O)c3cc(CNC(=O)C(C)(C)C)ccc3Cl)ccc21 [Example 55, 2-Chloro-N-(2-(4-chlorophenyl)-1-methyl-1H-benzo[d]imidazol-5-yl)-5-((2,2-dimethylpropanoylamino)methyl)benzamide] | 7.53 |  | 
23 | CCn1c(-c2ccc(F)cc2)cc2cc(NC(=O)c3cc(CNC(=O)C(C)(C)C)ccc3Br)ccc21 [Example 7, 2-Bromo-N-(1-ethyl-2-(4-fluorophenyl)-1H-indol-5-yl)5-((2,2-dimethylpropanoylamino)methyl)-benzamide] |  | 7.98 | 
